Results published in US7906110B2, “Rapid preparation of stem cell matrices for use in tissue and organ treatment and repair” (University of Pittsburgh—of the Commonwealth System of …, priority 2001, dated 2011).

Test system: spontaneous contractile activity of MDSC/SIS preparations
Experiment: Pharmacological evaluation on spontaneous contractile activity of MDSC/SIS
Format: cell-based
Conditions: for effect on spontaneous contractile activity in MDSC/SIS specimens: added to bath: carbachol 10 and 20 μM, KCI 7%, 1 M, EGTA 200 μM in Ca++-free Krebs
Method: Twenty five preparations of MDSC/SIS and twenty five control preparations of SIS only were incubated at 37° C. for 1, 4, or 8 weeks. The specimens were then mounted in a thermally controlled bath of 5 ml at 37° C. in Krebs solution (mmol/L: NaCl, 113; KCI, 4.7; CaCl2,1.25; MgSO4,1.2; NaHCO3, 25; KH2PO4, 1.2 and glucose, 11.5) with a mixture of 95% 02 and 5% C02. The frequency and amplitude of isometric contractions were measured with strain gauge transducers coupled with a TBM4 strain gauge amplifier and recorded on a computer using a data acquisition program (Windaq, DATAQ Instruments Inc. Akron, Ohio). After 60 minutes of equilibration, electrical field stimuli (10 Hz, 150 volt, 0.5 ms, 60 sec) were applied in the bath. Pharmacological evaluations were performed with succinylcholine (S-Chol), (4, 10 and 20 μM); carbachol (10 and 20 μM); KCI, (7%, 1 M); Ca^++-free Krebs solution with EGTA (200 μM); or distilled water, were each added to the bath sequentially at 30 minute intervals. The frequency, amplitude, and pattern of contraction of the specimens were compared among the different groups.

O=C(O)CN(CCOCCOCCN(CC(=O)O)CC(=O)O)CC(=O)O [EGTA]
effect on spontaneous contractile activity in MDSC/SIS specimens: blocked

[Cl-].[K+] [KCI]
effect on spontaneous contractile activity in MDSC/SIS specimens: did not alter

C[N+](C)(C)CCOC(N)=O [carbachol]
effect on spontaneous contractile activity in MDSC/SIS specimens: did not alter

C[N+](C)(C)CCOC(=O)CCC(=O)OCC[N+](C)(C)C [succinylcholine]
effect on frequency, amplitude or pattern of spontaneous activity (4 μM, any of the preparations): did not alter | frequency and amplitude of spontaneous contractile activity decreased (4-week MDSC/SIS, 10 μM): 2 of 5 | frequency and amplitude of spontaneous contractile activity decreased (4-week MDSC/SIS, 20 μM): 5 of 5 | spontaneous contractile activity blocked (4-week MDSC/SIS, 20 μM): 2 of 5 | frequency and amplitude of spontaneous contractile activity decreased (8-week MDSC/SIS, 10 μM): 8 of 8 | effect on frequency and amplitude of spontaneous contractile activity (8-week MDSC/SIS, 20 μM): decreased | spontaneous contractile activity blocked (8-week MDSC/SIS, 20 μM): 5 of 8 | reversibility of suppressant effects (after washout of the drug): reversible
